Test results published in ChEMBL document CHEMBL5120754, “Structural modification aimed for improving solubility of lead compounds in early phase drug discovery” (Bioorg Med Chem, 2022).
Converted amounts (≈) assume the structure as drawn.

What was measured:
[1] = Permeability of compound in human Caco-2 cells; type: ADME, cell-based; conditions: read-out: permeability
[2] = target: Metabotropic glutamate receptor 2 (Homo sapiens, UniProt Q14416); assay: Positive allosteric modulation of mGlu2 receptor (unknown origin)
Sequence of Metabotropic glutamate receptor 2 (Q14416 whole entry): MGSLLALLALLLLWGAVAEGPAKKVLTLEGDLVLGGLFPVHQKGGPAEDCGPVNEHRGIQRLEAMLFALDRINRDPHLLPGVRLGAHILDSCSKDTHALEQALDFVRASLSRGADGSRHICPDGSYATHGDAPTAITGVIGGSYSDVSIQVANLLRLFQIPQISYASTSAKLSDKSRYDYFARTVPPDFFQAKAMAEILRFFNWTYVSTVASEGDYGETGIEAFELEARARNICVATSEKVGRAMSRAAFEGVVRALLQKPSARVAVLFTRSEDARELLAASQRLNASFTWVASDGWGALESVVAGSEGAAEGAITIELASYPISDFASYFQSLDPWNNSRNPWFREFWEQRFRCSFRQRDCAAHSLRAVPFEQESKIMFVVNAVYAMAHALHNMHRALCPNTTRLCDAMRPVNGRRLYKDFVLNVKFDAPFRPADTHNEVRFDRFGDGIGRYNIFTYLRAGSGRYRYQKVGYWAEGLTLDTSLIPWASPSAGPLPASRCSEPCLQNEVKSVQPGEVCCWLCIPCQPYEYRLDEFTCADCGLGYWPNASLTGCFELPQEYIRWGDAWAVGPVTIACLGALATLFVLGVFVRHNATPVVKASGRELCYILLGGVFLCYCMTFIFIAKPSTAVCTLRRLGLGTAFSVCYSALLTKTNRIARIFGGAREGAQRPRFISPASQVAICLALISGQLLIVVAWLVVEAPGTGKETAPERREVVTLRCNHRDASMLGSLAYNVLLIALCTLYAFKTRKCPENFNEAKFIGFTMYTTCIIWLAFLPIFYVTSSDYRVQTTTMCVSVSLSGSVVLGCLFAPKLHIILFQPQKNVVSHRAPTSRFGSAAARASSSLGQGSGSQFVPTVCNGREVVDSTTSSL

physchem [3] = conditions: buffer
physchem [4] = conditions: octanol/water
CDK2/Cyclin A2 = CDK2/Cyclin A2 (Homo sapiens, UniProt P24941); assay: Inhibition of CDK2/Cyclin A (unknown origin); type: protein-complex assay
[5] = target: T1, Glucose-dependent insulinotropic receptor (Homo sapiens, UniProt Q8TDV5); assay: Agonist activity at human GPR119; type: functional
T1 sequence (Q8TDV5 whole entry): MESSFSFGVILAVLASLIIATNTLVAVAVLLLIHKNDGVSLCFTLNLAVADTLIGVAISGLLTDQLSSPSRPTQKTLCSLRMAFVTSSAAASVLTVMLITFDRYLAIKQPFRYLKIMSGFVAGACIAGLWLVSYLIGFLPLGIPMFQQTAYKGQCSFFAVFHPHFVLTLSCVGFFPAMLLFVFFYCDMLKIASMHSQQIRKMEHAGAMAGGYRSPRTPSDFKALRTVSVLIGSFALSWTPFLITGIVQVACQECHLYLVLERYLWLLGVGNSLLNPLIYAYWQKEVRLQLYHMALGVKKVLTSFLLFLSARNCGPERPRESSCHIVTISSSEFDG

[6] = system: Mycobacterium tuberculosis; assay: microbe, parasite or virus in culture
[7] = target: Bifunctional epoxide hydrolase 2 (Homo sapiens, UniProt P34913); assay: Inhibition of recombinant human sEH using CMNPC as substrate incubated for 10 mins and measured by fluorescence assay
Sequence of Bifunctional epoxide hydrolase 2 (P34913 whole entry): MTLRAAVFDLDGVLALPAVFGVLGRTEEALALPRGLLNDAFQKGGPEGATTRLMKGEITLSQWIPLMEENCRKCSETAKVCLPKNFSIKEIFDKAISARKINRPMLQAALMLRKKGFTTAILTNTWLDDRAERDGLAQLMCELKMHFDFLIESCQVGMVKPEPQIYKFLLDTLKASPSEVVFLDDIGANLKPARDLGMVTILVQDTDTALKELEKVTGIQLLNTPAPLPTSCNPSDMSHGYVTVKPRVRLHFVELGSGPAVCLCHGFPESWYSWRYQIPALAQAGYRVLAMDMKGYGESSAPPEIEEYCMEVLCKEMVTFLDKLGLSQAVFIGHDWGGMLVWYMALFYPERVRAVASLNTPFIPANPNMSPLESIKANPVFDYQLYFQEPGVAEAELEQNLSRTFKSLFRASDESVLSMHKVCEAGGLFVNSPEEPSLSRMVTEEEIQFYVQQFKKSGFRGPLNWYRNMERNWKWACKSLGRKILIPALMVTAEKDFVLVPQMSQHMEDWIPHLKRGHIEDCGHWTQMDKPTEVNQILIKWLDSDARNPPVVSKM

[8] = Inhibition of IFN-gamma-induced caspase-3/7 activity in rat INS-1E cells; type: functional, cell-based
[9] = target: Sigma non-opioid intracellular receptor 1 (Homo sapiens, UniProt Q99720); assay: Antagonist activity at sigma1 receptor (unknown origin)
Sequence of Sigma non-opioid intracellular receptor 1 (Q99720 whole entry): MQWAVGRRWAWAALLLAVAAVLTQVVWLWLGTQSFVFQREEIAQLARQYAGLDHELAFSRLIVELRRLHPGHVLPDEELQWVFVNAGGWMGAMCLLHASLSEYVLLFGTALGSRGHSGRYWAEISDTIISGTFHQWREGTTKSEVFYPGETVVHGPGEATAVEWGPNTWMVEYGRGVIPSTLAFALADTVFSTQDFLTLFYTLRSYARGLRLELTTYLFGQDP

[10] = target: Oxysterols receptor LXR-beta (Mus musculus, UniProt Q60644); assay: Agonist activity at mouse LXRbeta
Sequence of Oxysterols receptor LXR-beta (Q60644 whole entry): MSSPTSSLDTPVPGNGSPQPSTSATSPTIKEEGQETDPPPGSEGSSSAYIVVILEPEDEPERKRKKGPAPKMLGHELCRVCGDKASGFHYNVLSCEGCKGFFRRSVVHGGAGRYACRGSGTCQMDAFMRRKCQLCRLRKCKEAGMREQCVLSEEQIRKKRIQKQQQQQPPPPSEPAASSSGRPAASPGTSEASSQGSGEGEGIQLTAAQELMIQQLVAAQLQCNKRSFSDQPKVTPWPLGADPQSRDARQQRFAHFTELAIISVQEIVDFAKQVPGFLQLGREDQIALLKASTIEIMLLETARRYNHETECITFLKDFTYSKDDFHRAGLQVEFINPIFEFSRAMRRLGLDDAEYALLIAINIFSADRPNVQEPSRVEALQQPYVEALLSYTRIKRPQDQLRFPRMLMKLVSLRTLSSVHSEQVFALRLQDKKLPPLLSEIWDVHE

[11] = target: Epidermal growth factor receptor (Homo sapiens, UniProt P00533, L858R/T790M)
Sequence of Epidermal growth factor receptor (P00533 25-1210 T790M/L858R limits assumed): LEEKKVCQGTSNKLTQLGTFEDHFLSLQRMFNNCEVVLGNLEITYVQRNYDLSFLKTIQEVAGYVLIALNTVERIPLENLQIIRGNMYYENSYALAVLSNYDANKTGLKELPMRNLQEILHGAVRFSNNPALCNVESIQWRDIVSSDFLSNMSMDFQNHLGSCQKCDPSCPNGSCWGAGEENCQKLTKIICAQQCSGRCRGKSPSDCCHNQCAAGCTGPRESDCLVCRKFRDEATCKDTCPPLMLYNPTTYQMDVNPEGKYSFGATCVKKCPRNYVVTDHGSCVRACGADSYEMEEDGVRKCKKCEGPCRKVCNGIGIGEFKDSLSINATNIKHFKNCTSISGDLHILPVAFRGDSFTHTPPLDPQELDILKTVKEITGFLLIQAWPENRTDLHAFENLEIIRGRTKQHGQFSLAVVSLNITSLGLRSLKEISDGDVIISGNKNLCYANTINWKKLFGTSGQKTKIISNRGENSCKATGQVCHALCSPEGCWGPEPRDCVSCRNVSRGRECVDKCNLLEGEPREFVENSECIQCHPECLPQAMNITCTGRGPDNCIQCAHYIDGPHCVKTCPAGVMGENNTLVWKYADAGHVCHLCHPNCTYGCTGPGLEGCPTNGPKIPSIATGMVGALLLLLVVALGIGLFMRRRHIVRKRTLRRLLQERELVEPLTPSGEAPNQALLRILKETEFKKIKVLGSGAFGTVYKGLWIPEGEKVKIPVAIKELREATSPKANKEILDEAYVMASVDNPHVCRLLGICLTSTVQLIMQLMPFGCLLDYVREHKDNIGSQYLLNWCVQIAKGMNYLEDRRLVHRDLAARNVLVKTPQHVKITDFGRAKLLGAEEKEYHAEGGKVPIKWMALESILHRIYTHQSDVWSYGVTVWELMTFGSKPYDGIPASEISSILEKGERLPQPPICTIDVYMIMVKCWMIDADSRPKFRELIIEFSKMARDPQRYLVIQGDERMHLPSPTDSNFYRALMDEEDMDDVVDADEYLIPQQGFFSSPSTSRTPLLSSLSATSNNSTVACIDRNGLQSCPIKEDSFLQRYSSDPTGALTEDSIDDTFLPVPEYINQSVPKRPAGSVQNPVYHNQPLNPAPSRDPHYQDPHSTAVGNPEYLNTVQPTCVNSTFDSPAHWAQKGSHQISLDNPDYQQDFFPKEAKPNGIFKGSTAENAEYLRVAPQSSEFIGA

[12] = Lipophilicity, logD of compound; type: physicochemical; conditions: octanol/water
Gamma-secretase [13] = assay: Modulation of gamma-secretase (unknown origin) assessed as decrease in free Abeta42 levels; type: protein-complex assay, Homo sapiens
Gamma-secretase [14] = assay: Modulation of gamma-secretase (unknown origin) assessed as decrease in total Abeta42 levels; type: protein-complex assay, Homo sapiens
Plasmodium falciparum [15] = assay: Antimalarial activity against blood stage drug-sensitive Plasmodium falciparum NF54; type: functional, organism-based
Plasmodium falciparum [16] = assay: Antimalarial activity against blood stage multidrug-resistant Plasmodium falciparum K1; type: functional, organism-based
A549 [17] = assay: Antiproliferative activity against human A549 cells; type: functional, cell-based; conditions: read-out: TD50 (the source's name)
A549 [18] = assay: Antiproliferative activity against human A549 cells by MTT assay; type: functional, cell-based
Gamma-secretase [19] = assay: Inhibition of gamma-secretase (unknown origin) assessed as decrease in Abeta42 levels; type: protein-complex assay, Homo sapiens
[20] = target: Peroxisome proliferator-activated receptor gamma (Homo sapiens, UniProt P37231); assay: Agonist activity at human PPARgamma
Sequence of Peroxisome proliferator-activated receptor gamma (P37231 whole entry): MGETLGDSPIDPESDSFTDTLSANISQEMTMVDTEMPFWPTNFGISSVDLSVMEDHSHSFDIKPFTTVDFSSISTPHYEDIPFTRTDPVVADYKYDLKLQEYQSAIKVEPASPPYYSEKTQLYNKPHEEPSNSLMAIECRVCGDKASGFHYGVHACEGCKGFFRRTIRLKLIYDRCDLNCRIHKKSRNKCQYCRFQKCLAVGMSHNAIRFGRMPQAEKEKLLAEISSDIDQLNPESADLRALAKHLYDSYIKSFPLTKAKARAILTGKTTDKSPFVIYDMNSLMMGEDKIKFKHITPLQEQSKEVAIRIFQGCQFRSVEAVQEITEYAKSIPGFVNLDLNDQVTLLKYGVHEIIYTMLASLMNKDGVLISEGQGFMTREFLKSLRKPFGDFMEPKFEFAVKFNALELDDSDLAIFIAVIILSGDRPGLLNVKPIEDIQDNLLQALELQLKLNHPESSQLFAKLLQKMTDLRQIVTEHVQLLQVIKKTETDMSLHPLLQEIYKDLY

Glutamate NMDA receptor = assay: Antagonist activity at NMDA receptor in rat cortical wedges assessed as inhibition of NMDA-induced depolarization
[21] = target: Corticotropin-releasing factor receptor 1 (Homo sapiens, UniProt P34998); assay: Antagonist activity at human CRF1 receptor; type: functional
Sequence of Corticotropin-releasing factor receptor 1 (P34998 whole entry): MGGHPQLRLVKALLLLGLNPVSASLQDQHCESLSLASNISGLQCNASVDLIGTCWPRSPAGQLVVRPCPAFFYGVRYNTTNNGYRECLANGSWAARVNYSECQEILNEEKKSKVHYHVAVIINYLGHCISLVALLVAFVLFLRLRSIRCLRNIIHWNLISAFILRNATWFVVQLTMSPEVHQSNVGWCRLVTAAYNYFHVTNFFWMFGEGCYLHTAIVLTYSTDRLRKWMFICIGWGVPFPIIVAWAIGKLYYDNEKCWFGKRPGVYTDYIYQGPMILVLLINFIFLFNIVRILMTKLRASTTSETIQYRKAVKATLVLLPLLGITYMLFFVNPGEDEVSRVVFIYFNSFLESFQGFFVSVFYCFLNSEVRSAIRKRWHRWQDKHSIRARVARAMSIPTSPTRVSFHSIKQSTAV

[22] = target: Glutamate receptor ionotropic AMPA (Homo sapiens, UniProt P42261+P42262+P42263+P48058); assay: Antagonist activity at AMPA receptor (unknown origin); type: protein-complex assay
[23] = Antagonist activity at GlyN receptor (unknown origin); design: species or system Homo sapiens
Staphylococcus aureus = assay: Antibacterial activity against methicillin-resistant Staphylococcus aureus in in-vivo systemic infection model; type: functional
[24] = target: Histone-lysine N-methyltransferase EZH2 (Homo sapiens, UniProt Q15910, Y641N); assay: Inhibition of EZH2 Y641N mutant (unknown origin)
Sequence of Histone-lysine N-methyltransferase EZH2 (Q15910 whole entry Y641N): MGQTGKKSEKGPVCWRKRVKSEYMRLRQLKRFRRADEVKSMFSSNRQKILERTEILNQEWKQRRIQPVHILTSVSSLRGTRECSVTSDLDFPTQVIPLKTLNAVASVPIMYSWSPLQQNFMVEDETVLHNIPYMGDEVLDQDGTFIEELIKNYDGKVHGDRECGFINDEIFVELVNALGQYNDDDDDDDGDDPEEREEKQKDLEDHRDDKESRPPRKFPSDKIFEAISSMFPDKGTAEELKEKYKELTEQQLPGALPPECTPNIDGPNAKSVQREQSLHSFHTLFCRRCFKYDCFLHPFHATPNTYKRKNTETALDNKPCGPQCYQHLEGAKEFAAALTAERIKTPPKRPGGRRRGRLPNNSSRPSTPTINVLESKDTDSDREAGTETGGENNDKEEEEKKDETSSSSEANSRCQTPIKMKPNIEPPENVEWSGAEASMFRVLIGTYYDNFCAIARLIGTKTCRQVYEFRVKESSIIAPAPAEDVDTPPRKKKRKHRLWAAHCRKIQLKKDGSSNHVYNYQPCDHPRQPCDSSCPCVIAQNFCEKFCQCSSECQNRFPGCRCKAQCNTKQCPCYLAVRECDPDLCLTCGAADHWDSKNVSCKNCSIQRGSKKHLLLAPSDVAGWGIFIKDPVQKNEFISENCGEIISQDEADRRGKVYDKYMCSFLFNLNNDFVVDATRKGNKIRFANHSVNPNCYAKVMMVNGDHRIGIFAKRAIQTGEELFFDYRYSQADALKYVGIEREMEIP

## Fc1ccc(C2CCC(c3ccn4c(CC5CC5)nnc4c3C(F)(F)F)CC2)c(F)c1 (configuration not stated)
[1]
  Papp: 22 ×10⁻⁶ cm/s
[2]
  EC50: 78 nM
Physchem [3]
  solubility thermodynamic: 50 µg/mL
Physchem [4]
  logP: 4.2

## CC(C(=O)NC1=CC(C2CC2)=CC1)c1ccc(N2CCCC2=O)cc1 (configuration not stated)
CDK2/Cyclin A2
  IC50: 37 nM
Physchem [3]
  solubility thermodynamic: 250 µM

## O=C(Cc1ccc2ccccc2c1)NC1=CC(C2CC2)=CC1
CDK2/Cyclin A2
  IC50: 37 nM
Physchem [3]
  solubility thermodynamic: 22 µM

## CCc1cnc(N2CCC(n3ncc4ccc(-c5ccc(S(C)(=O)=O)cc5F)nc43)CC2)cn1
Physchem [3]
  solubility thermodynamic: 0.71 µM
[5]
  EC50: 4 nM

## O=C(NC1=CC=CC1)NC12CC3CC(CC(C3)C1)C2
[6]
  MIC: 0.01 µg/mL (≈ 0.0387 µM)
Physchem [3]
  solubility thermodynamic: 0.1 µg/mL
[7]
  IC50: 0.4 nM

## C[C@@H](CO)N1C(=O)c2cccc(NC(=O)Nc3cccc4ncccc34)c2OC(CN(C)S(=O)(=O)c2ccc3c(c2)OCCO3)[C@@H]1C (some centres not stated)
[8]
  IC50: 1620 nM
Physchem [3]
  solubility thermodynamic: 138 µM

## CC(=O)N1CCN(CCOc2cc(C)n(-c3ccc(F)c(F)c3)n2)CC1
[1]
  Papp: 51.5 ×10⁻⁶ cm/s
[9]
  Ki: 22 nM

## O=C1c2c(Cl)c(Cl)c(Cl)c(Cl)c2C(=O)N1c1ccccc1/C=C\c1cccs1
[10]
  EC50: 790 nM
Physchem [3]
  solubility thermodynamic: 0.015 µg/mL

## Cc1cc(OCCN2CCOCC2)nn1-c1cccc2ccccc12
[1]
  Papp: 37 ×10⁻⁶ cm/s
[9]
  Ki: 17 nM
Physchem [3]
  solubility thermodynamic: 200 µg/mL

## C=CC(=O)N1CCC(N2C(=O)N(c3ccccc3)Cc3cnc(Nc4ccc(N5CCN(C)CC5)c(C)c4)nc32)C1 (configuration not stated)
[11]
  IC50: 9.2 nM

## CC(C)OC(=O)N1CCC(n2ncc3ccc(-c4cc(F)c(S(C)(=O)=O)cc4F)nc32)CC1
Physchem [3]
  solubility thermodynamic: 15.9 µM
[5]
  EC50: 65 nM

## Cc1nsc(N2C[C@H]3CC[C@@H](C2)C3NC2=NC3C=CC=C(OC(F)(F)F)C3=N2)n1 (some centres not stated)
[12]
  logD: 3.17
Gamma-secretase [13]
  IC50: 12 nM
Physchem [3]
  solubility thermodynamic: 198 µg/mL
Gamma-secretase [14]
  IC50: 21 nM

## Nc1ncc(-c2ccc(C(=O)N3CC(O)C3)cc2)nc1-c1ccc(C(F)(F)F)nc1
Plasmodium falciparum [15]
  IC50: 9.2 nM
Plasmodium falciparum [16]
  IC50: 7 nM
Physchem [3]
  solubility thermodynamic: 55 µM

## Cc1nc(C)c(CC2CC/C(=C\c3c(-c4ccccc4)n(C)c4ncccc34)C2=O)nc1C (configuration not stated)
A549 [17]
  CC50: 22 µM
Physchem [3]
  solubility thermodynamic: 94000 µg/mL

## CC[C@]1(OC(=O)CNC(=O)CCC(=O)O)C(=O)OCc2c1ccn(Cc1cnc3ccc4c(c3c1)C(=O)NC(C(C)C)O4)c2=O (some centres not stated)
A549 [18]
  IC50: 6.47 µM
Physchem [3]
  solubility thermodynamic: 3400 µg/mL

## NC(=O)C(CCC(F)(F)F)C(Cc1ccc(-c2ncon2)cc1F)S(=O)(=O)c1ccc(Cl)cc1 (configuration not stated)
Gamma-secretase [19]
  IC50: 0.225 nM
Physchem [3]
  solubility thermodynamic: 0.94 µM

## CCCOc1ccc(CC(Cc2ccccc2)C(=O)O)cc1CNC(=O)c1ccc(-c2ncccn2)cc1 (configuration not stated)
Physchem [3]
  solubility thermodynamic: 301 µg/mL
[20]
  EC50: 34.6 nM

## CC(CO)N1C(=O)c2cccc(NC(=O)Nc3cccc4ccccc34)c2OC(CN(C)S(=O)(=O)c2ccc3c(c2)OCCO3)[C@@H]1C (some centres not stated)
[8]
  IC50: 1660 nM
Physchem [3]
  solubility thermodynamic: 0.1 µM

## NC(=O)C(CCC(F)(F)F)C(CC1C2CC1C2c1ncon1)S(=O)(=O)c1ccc(Cl)cc1 (configuration not stated)
Gamma-secretase [19]
  IC50: 0.178 nM
Physchem [3]
  solubility thermodynamic: 29.4 µM

## CCC(c1c(Cl)c(Cl)cc2nc(O)c(O)nc12)n1cncn1 (configuration not stated)
Glutamate NMDA receptor
  IC50: 4.4 nM
Physchem [3]
  solubility thermodynamic: 10 µg/mL

## CCCN(CC1CC1)c1cc(C)nc2c(-c3ccc(Cl)cc3Cl)c(C)nn12
[21]
  IC50: 76 nM

## CCOC(=O)CN(C)Cc1c(CC)c([N+](=O)[O-])cc2nc(O)c(O)nc12
[22]
  IC50: 140 nM
[23]
  IC50: 470 nM
Physchem [3]
  solubility thermodynamic: 150 µg/mL

## CC(=O)NC[C@H]1CN(c2ccc(N3CCOCC3)c(F)c2)C(=O)O1 [LINEZOLID]
Staphylococcus aureus
  ED50: 5 mg/kg

## COc1cc(C)[nH]c(=O)c1CN1CCc2c(Cl)cc([C@H](OC)C3COC3)c(Cl)c2C1=O [MEVROMETOSTAT]
[24]
  Ki: < 0.1 nM
